US20250320189A1, “NEW DERIVATIVES FOR TREATING TRPM3 MEDIATED DISORDERS” (Katholieke Universiteit Leuven, priority 2022, published 2025)

Assays:
rat pain model = settings: cited from earlier work
TRPM3 = TRPM3 (Homo sapiens, UniProt Q9HCF6); settings: cited from earlier work
[1] = system: wild type mice / knock-out TRPM3 mice; settings: wild type mice vs knock-out TRPM3 mice; cited from earlier work
[2] = target: T1, mouse TRPM3α2 (mTRPM3) ion channel (Mus musculus, UniProt J9SQF3); assay: Monitoring the TRPM3 ion channel driven Ca2+ uptake (Fluo-4 AM assay); format: cell-based; settings: mTRPM3alpha2 overexpressing flip-in HEK293 cells, stimulated with Pregnenolone sulfate (PS) 50 μM
T1 construct: expressed in transfected cells; host or cells: flip-in (Flp-In) HEK293
T1 sequence (J9SQF3 1-1709 isoform J9SQF3-12): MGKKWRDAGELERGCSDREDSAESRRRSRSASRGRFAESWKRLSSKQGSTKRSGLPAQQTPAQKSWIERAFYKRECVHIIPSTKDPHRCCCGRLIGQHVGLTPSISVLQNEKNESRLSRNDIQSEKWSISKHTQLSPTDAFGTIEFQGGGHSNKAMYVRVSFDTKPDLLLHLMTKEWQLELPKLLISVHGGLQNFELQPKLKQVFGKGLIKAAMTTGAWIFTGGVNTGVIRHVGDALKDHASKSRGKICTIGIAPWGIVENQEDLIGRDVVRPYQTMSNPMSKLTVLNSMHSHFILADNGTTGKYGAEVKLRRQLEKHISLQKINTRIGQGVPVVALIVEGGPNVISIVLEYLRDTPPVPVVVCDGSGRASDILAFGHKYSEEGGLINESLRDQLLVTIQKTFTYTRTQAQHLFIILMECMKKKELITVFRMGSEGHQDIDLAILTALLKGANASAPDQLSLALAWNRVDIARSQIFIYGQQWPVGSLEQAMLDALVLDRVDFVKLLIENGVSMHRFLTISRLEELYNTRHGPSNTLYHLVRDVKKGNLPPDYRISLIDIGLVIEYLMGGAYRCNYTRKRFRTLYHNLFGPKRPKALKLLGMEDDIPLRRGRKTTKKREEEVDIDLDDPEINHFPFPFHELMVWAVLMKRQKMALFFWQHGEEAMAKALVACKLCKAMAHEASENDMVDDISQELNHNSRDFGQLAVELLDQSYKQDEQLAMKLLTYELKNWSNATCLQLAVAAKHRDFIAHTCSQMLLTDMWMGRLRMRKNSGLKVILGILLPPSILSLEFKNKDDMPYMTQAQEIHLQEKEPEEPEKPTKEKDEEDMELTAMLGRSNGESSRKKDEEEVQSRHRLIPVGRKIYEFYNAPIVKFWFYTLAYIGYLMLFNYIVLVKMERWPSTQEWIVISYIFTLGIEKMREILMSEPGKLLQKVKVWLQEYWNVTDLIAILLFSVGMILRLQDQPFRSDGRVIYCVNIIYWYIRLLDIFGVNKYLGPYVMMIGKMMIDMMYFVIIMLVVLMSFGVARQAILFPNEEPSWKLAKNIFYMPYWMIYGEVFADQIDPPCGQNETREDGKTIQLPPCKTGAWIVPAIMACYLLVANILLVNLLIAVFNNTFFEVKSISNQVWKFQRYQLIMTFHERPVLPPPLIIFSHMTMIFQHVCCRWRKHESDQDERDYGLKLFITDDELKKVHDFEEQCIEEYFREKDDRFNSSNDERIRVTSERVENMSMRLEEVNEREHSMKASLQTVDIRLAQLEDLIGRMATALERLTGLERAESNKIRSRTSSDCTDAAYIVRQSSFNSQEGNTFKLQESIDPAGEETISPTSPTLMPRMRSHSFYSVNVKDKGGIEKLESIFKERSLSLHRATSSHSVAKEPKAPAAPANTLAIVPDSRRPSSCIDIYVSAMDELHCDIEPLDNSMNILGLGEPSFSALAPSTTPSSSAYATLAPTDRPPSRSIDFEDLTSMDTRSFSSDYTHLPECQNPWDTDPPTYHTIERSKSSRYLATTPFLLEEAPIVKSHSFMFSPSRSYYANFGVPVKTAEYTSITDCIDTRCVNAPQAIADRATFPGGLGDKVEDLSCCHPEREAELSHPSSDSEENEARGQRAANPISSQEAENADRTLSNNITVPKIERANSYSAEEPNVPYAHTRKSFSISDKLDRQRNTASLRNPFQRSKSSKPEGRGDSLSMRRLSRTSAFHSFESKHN
Outline: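 Flp-In HEK293 cells overexpressing mTRPM3α2 were loaded with Fluo-4 AM and added to plates holding compound plus 50 μM pregnenolone sulfate in Ca²⁺-containing Krebs buffer. Fluorescence (ex 485/em 535) was read right after cell addition. Inhibition was calculated against vehicle-stimulated and positive-control-inhibitor wells, with IC50 derived from it.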

TRPM3, sequence (Q9HCF6 whole entry, species assumed): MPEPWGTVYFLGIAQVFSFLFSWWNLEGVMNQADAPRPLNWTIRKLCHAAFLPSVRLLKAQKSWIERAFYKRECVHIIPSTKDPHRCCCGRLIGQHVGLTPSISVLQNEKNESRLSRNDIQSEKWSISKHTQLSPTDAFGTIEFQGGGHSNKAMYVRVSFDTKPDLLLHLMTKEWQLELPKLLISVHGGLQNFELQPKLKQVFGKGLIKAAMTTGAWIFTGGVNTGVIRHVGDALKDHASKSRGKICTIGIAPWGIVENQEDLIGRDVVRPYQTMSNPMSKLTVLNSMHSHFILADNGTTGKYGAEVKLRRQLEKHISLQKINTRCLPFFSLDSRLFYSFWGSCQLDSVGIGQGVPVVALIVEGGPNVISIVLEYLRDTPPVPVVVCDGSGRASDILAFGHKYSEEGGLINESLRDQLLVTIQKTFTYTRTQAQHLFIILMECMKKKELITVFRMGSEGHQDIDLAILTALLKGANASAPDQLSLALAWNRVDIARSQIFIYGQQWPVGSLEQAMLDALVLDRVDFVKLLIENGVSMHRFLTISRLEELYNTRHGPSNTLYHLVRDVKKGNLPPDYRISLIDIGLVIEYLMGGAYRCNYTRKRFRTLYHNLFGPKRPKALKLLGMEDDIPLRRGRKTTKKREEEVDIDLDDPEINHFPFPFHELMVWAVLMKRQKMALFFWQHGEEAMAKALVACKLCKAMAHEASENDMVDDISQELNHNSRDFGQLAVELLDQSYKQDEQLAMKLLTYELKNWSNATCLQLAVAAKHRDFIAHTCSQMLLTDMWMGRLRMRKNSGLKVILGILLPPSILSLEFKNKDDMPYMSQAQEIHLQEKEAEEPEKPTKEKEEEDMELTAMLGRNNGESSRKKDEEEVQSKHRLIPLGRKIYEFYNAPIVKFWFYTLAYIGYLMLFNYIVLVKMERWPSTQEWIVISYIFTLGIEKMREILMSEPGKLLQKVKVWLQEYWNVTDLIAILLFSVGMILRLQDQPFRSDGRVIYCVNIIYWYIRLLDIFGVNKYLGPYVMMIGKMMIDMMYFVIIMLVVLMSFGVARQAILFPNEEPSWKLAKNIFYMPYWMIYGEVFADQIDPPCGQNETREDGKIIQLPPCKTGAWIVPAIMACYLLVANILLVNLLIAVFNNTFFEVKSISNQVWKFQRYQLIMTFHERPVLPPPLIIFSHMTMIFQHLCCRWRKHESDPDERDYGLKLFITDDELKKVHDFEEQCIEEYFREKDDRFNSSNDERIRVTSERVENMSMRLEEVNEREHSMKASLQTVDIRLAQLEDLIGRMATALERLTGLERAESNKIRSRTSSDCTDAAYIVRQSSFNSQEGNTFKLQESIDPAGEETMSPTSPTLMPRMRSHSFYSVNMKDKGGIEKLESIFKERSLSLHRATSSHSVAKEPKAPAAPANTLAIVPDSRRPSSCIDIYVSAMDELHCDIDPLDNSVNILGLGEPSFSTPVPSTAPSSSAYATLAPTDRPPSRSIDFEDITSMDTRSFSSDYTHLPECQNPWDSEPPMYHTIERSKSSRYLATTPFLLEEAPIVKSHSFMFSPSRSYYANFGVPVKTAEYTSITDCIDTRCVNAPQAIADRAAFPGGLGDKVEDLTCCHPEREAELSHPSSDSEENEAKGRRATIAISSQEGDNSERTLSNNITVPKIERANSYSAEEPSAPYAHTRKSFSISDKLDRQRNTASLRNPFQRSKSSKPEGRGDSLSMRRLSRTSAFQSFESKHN

| Molecule | IC50 [2] [µM] | further results |
| --- | --- | --- |
| O=C1C[C@@H](c2ccc(O)cc2)Oc2cc(O)ccc21 [Liquiritigenin] | – | mechanical and cold hyperalgesia (rat pain model): decrease mechanical and cold hyperalgesia |
| pregnenolone sulfate | – | activator of TRPM3 (TRPM3): potent known activator; evoked pain [1]: evoked pain in wild type mice but not in knock-out TRPM3 mice |
| Cc1oc2ccc(OCC3CC3)cc2c1C(=O)NC1(CO)CCNC1=O (single isomer, unassigned) [Cpd 028 - En1, 5-(cyclopropylmethoxy)-N-[3-(hydroxymethyl)-2-oxopyrrolidin-3-yl]-2-methyl-1-benzofuran-3-carboxamide] | < 1 | – |
| Cc1oc2ccc(OCC3CC3)cc2c1C(=O)NC(C)(CO)CO [Cpd 023, 5-(cyclopropylmethoxy)-N-(1,3-dihydroxy-2-methylpropan-2-yl)-2-methyl-1-benzofuran-3-carboxamide] | < 1 | – |
| Cc1oc2ccc(OCC3CC3)cc2c1C(=O)NC1(CO)CCOCC1 [Cpd 030, 5-(cyclopropylmethoxy)-N-[4-(hydroxymethyl)oxan-4-yl]-2-methyl-1-benzofuran-3-carboxamide] | < 1 | – |
| Cc1oc2ccc(OCC3CCC3)cc2c1C(=O)N[C@@H](CO)C(N)=O [Cpd 006, (2S)-2-{[5-(cyclobutylmethoxy)-2-methyl-1-benzofuran-3-yl]formamido}-3-hydroxypropanamide] | < 1 | – |
| Cc1oc2ccc(OCC3CC3(C)C)cc2c1C(=O)NC(C)(CO)C(N)=O (single isomer, unassigned) [Cpd 049 - En3, 2-({5-[(2,2-dimethylcyclopropyl)methoxy]-2-methyl-1-benzofuran-3-yl}formamido)-3-hydroxy-2-methylpropanamide] | < 1 | – |
| Cc1oc2ccc(OCC(C)(C)C)cc2c1C(=O)NC1CCNCC1(F)F (single isomer, unassigned) [Cpd 043-En1, N-(3,3-difluoropiperidin-4-yl)-5-(2,2-dimethylpropoxy)-2-methyl-1-benzofuran-3-carboxamide] | 1 to 20 | – |
| Cc1oc2ccc(OCC3CC3)cc2c1C(=O)NC(CO)C(N)C(F)(F)F (single isomer, unassigned) [Cpd 056 - En1, N-[(2)-3-amino-4,4,4-trifluoro-1-hydroxybutan-2-yl]-5-(cyclopropylmethoxy)-2-methyl-1-benzofuran-3-carboxamide] | 1 to 20 | – |
| Cc1oc2ccc(OCC3CC(F)(F)C3)cc2c1C(=O)NC(C)(CO)C(N)=O (single isomer, unassigned) [Cpd 054 - En1, 2-({5-[(3,3-difluorocyclobutyl)methoxy]-2-methyl-1-benzofuran-3-yl}formamido)-3-hydroxy-2-methylpropanamide] | 1 to 20 | – |
| Cc1oc2ccc(OCC3CC3(F)F)cc2c1C(=O)NC(CO)CC(F)(F)F (single isomer, unassigned) [Cpd 057 - En1, 5-[(2,2-difluorocyclopropyl)methoxy]-2-methyl-N-(4,4,4-trifluoro-1-hydroxybutan-2-yl)-1-benzofuran-3-carboxamide] | < 1 | – |
